In BindingDB's records for PubMed 32942081 (Jamia Millia Islamia, 2020) one finds IC50 data, which are given here for one molecule.

This assay concerns the target T1, Amine oxidase [flavin-containing] B (Homo sapiens, UniProt P27338).
T1 sequence (P27338 whole entry): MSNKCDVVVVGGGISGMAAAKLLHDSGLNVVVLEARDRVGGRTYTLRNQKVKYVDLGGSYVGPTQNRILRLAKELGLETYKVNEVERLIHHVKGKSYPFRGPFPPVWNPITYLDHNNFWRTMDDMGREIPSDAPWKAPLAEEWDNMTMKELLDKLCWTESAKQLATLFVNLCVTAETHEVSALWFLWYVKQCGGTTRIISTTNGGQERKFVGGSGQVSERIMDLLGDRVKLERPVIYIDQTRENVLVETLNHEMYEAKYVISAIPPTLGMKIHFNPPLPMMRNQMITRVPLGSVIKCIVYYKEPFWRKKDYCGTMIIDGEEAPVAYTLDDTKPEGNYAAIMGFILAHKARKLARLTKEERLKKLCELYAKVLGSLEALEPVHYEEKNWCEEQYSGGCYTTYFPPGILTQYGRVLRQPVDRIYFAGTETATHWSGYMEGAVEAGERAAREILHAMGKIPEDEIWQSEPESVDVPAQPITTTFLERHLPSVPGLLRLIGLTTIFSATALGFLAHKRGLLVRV
The assay can be described thus: Inhibition of human MAO-B using tyramine as substrate by amplex red assay.

By IC50 is commonly meant the midpoint of a concentration-inhibition curve. A high value points to lower potency.

The molecule `Cc1ccc(C2=NO[C@@H](c3ccc(Cl)c(Cl)c3)C2)cc1` returned an IC50 of 1.9 nM. In other words, the single-digit nanomolar range.
